Assay results reported in patent US20160050919A1, “ACETYL-COA CARBOXYLASE INHIBITOR HERBICIDE AND AUXIN HERBICIDE FORMULATIONS” (Nufarm Americas, Inc., priority 2014, published 2016).

What was measured:
[1] = Stability of fenoxaprop-p-ethyl in the formulation at ambient temperature (~22° C.); format: physicochemical
Method: The formulation described in table 1 was tested for stability of all three active ingredients for two weeks at 54° C.

[2] = Stability of active ingredients in the formulation, two weeks at 54° C.; conditions: for % wt after 2 week at 54° C. / Initial % wt: formulation of Table 5 (emulsion)
[3] = formulation of table 1 (micro emulsion, pH 6.7), two weeks at 54° C.
[4] = formulation of table 3 (emulsifiable concentrate), two weeks at 54° C.

| Structure (SMILES) | % wt after 2 week at 54° C. [2] [% wt] | Initial % wt [2] [% wt] | stability of active ingredient [2, 3] | stability of active ingredient [2, 4] | other results |
| --- | --- | --- | --- | --- | --- |
| CCOC(=O)[C@@H](C)Oc1ccc(Oc2nc3ccc(Cl)cc3o2)cc1 [fenoxaprop-p-ethyl, Fenoxaprop-p-ethyl] | 0.60 | 0.60 | – | – | fenoxaprop-p-ethyl content, 2-week ([1]; formulation of table 1, 2 weeks): 2.61 wt %; fenoxaprop-p-ethyl content, 4-week ([1]; formulation of table 1, 4 weeks): 2.24 wt %; fenoxaprop-p-ethyl content, 6-week ([1]; formulation of table 1, 6 weeks): 2.15 wt %; fenoxaprop-p-ethyl content, 8-week ([1]; formulation of table 1, 8 weeks): 1.91 wt %; fenoxaprop-p-ethyl content, 12-week ([1]; formulation of table 1, 12 weeks): 1.28 wt %; fenoxaprop-p-ethyl content, 14-week ([1]; formulation of table 1, 14 weeks): 0.87 wt %; fenoxaprop-p-ethyl content, Initial ([1]; formulation of table 1, initial): 2.82 wt %; recovered after storage [2, 3]: 1% |
| COc1c(Cl)ccc(Cl)c1C(=O)O [Dicamba] | 0.45 | 0.64 | remained unchanged | remained unchanged | – |
| O=C(O)COc1nc(Cl)c(Cl)cc1Cl [Triclopyr, Triclopyr ACID] | 1.75 | 1.78 | – | – | – |
| Cc1cc(Cl)ccc1O[C@@H](C)C(=O)O [MCPP-p] | 1.39 | 1.53 | – | – | – |
| CCCCCCC(C)OC(=O)COc1nc(F)c(Cl)c(N)c1Cl (centres unmarked) [fluroxypyr MHE, Fluroxypyr MHE] | – | – | remained unchanged | remained unchanged | – |
